Assay results taken from PubChem BioAssay (NCI).
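All cell lines were grown in 96-well plates and treated with compound for 48 hours. GI50 marks 50% less growth. The concentration for full growth arrest is given as TGI.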

What was measured:
Assay in all cases: DTP human tumour cell line panel, 48 h
[1] = test system: T-47D breast
[2] = test system: K-562 leukemia
[3] = test system: M14 melanoma
[4] = test system: HS 578T breast
[5] = test system: HOP-92 NSCLC
[6] = test system: LOX IMVI melanoma
[7] = test system: KM12 colon
[8] = test system: 786-0 renal
[9] = test system: BT-549 breast
[10] = test system: TK-10 renal
[11] = test system: MCF7 breast
[12] = test system: SW-620 colon
[13] = test system: UACC-257 melanoma
[14] = test system: SF-268 CNS
[15] = test system: MDA-MB-231 breast
[16] = test system: NCI-H23 lung
[17] = test system: OVCAR-3 ovarian
[18] = test system: PC-3 prostate
[19] = test system: NCI/ADR-RES ovarian
[20] = test system: A549 NSCLC
[21] = test system: NCI-H460 lung
[22] = test system: NCI-H522 lung
[23] = test system: HCT-116 colon
[24] = test system: NCI-H226 lung
[25] = test system: OVCAR-8 ovarian
[26] = test system: SF-539 CNS
[27] = test system: HCC-2998 colon
[28] = test system: ACHN renal
[29] = test system: SR leukemia

CCCCC[C@H]1C/C=C2/C(=O)C(Cl)=C[C@@H]2C/C=C\CCCC(=O)O1
GI50 [1]: 554 nM
TGI [1]: 2080 nM
GI50 [2]: 116 nM
TGI [2]: 3600 nM
GI50 [3]: 422 nM
TGI [3]: 999 nM
GI50 [4]: 1100 nM
TGI [4]: 25000 nM
GI50 [5]: 587 nM
TGI [5]: 1380 nM
GI50 [6]: 126 nM
TGI [6]: 449 nM
GI50 [7]: 518 nM
TGI [7]: 1330 nM
GI50 [8]: 470 nM
TGI [8]: 888 nM
GI50 [9]: 421 nM
TGI [9]: 825 nM
GI50 [10]: 612 nM
TGI [10]: 1170 nM
GI50 [11]: 88.6 nM
TGI [11]: 2700 nM
GI50 [12]: 181 nM
TGI [12]: 1300 nM
GI50 [13]: 513 nM
TGI [13]: 1410 nM
GI50 [14]: 803 nM
TGI [14]: 3720 nM
GI50 [15]: 642 nM
TGI [15]: 2240 nM
GI50 [16]: 493 nM
TGI [16]: 1180 nM
GI50 [17]: 366 nM
TGI [17]: 1260 nM
GI50 [18]: 473 nM
TGI [18]: 1270 nM
GI50 [19]: 317 nM
TGI [19]: 1640 nM
GI50 [20]: 625 nM
TGI [20]: 1870 nM
GI50 [21]: 629 nM
TGI [21]: 1910 nM
GI50 [22]: 335 nM
TGI [22]: 755 nM
GI50 [23]: 201 nM
TGI [23]: 570 nM
GI50 [24]: 544 nM
TGI [24]: 1500 nM
GI50 [25]: 328 nM
TGI [25]: 1650 nM
GI50 [26]: 607 nM
TGI [26]: 1610 nM
GI50 [27]: 475 nM
TGI [27]: 855 nM
GI50 [28]: 361 nM
TGI [28]: 704 nM
GI50 [29]: 122 nM
